Test results from patent US7635706B2, “5HT4-antagonistic 4-(aminomethyl)-piperidine benzamides” (Janssen Pharmaceutica NV, priority 2003, dated 2009).
Structures can show the parent of a compound that is named as a salt.

Experiments:
h5-HT4b = target: T1, h5-HT4b (Homo sapiens, UniProt Q13639); experiment: 5HT4 antagonism: [3H]GR113808 binding to membranes of h5-HT4b-HEK 293 clone 9 cells; details: [3H]GR113808 0.1 nM, h5-HT4b-HEK 293 membranes, 30 min at 25° C.
T1 construct: expressed in transfected cells; host or cells: HEK 293 (clone 9), membrane preparation
Procedure: h5-HT4b-HEK 293 clone 9 cells were cultured in 150 mm Petri dishes and washed twice with cold PBS. The cells were then scraped from the plates and suspended in 50 mM Tris-HCl buffer, pH 7.4 and harvested by centrifugation at 23,500 rpm for 10 minutes. The pellet was resuspended in 5 mM Tris-HCl, pH 7.4 and homogenized with an Ultra Turrax homogenizer. The membranes were collected by centrifugation at 30,000 rpm for 20 min, resuspended in 50 mM Tris-HCl pH 7.4 and stored at −80° C. For the experiment, assay mixtures (0.5 ml) contained 50 μl of the tritiated ligand (5-HT4 antagonist [^3H]GR113808 0.1 nM) and 0.4 ml membrane preparation (15 μg protein/ml). 50 μl of 10% DMSO was added for total binding. 50 μl of 1 μM of (+)-trans-(1-butyl-3-hydroxy4-piperidinyl)methyl 8-amino-7-chloro-2,3-dihydro-1,4-benzodioxin-5-carboxylate (a proprietary 5HT4 agonist of Janssen Pharmaceutica) was added for determination of non-specific binding.
The [^3H]GR113808 assay buffer was 50 mM HEPES-NaOH, pH 7.4. The mixtures were incubated for 30 min at 25° C. The incubation was terminated by filtration over a Unifilter 96 GF/B presoaked in 0.1% polyethylenimine, followed by six washing steps with 50 mM HEPES-NaOH, pH 7.4.

T1 sequence (Q13639 whole entry): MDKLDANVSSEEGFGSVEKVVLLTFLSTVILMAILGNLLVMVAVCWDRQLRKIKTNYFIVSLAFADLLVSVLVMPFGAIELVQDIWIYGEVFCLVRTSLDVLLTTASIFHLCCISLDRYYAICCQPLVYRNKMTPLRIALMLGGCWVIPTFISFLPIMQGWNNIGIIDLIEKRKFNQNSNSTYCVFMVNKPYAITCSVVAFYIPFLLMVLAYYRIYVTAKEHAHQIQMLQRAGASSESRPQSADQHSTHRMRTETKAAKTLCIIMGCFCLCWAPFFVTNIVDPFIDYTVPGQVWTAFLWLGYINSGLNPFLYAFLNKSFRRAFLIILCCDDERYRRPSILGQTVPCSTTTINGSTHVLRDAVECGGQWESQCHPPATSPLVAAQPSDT

IC50 (h5-HT4b) [nM] | melting point [°C] | SMILES
1.23 | 115 | CCCCN1CC[C@@H](CNC(=O)c2cc(Cl)c(Cl)c3c2OCCCO3)[C@H](O)C1 [compound 16]
2.45 | 124 | Cc1ccc(C(=O)NC[C@@H]2CCN(CCCCNS(C)(=O)=O)C[C@H]2O)c2c1OCCCO2 [compound 107]
1.17 | 160 | Cc1ccc(C(=O)NC[C@@H]2CCN(CCCC(N)=O)C[C@H]2O)c2c1OCCCO2 [compound 109]
8.71 | 131 | CCOc1ccc(C(=O)NC[C@@H]2CCN(CCCC#N)C[C@H]2O)c2c1OCCCO2 [compound 145]
33.9 | 180 | COc1ccc(C(=O)NC[C@@H]2CCN(CCCC(N)=O)C[C@H]2OC)c2c1OCCO2 [compound 140]
2.75 | 109 | COCCCN1CC[C@@H](CNC(=O)c2ccc(C)c3c2OCCCO3)[C@H](O)C1 [compound 2]
1.32 | 127 | CCCCN1CC[C@@H](CNC(=O)c2ccc(C)c3c2OCCCO3)[C@H](O)C1 [compound 1]
107 | 160 | COc1ccc(C(=O)NC[C@@H]2CCNC[C@H]2O)c2c1OCCO2 [compound 117]
1.74 | 127 | CCCCN1CC[C@@H](CNC(=O)c2cc(Cl)c(OC)c3c2OCCO3)[C@H](O)C1 [compound 7]
 | 120 | CNCCCCN1CC[C@@H](CNC(=O)c2ccc(C)c3c2OCCCO3)[C@H](O)C1 (as salt: salt) [compound 4]
162 |  | COCCCCN1CC[C@H](CNC(=O)c2ccc(OC)c3c2OCCCO3)[C@H](O)C1 [compound 142]
4.9 |  | COCCCN1CC[C@@H](CNC(=O)c2cc(Cl)c(Br)c3c2OCCCO3)[C@H](OC)C1 [compound 54]
1.17 |  | O=C(NC[C@@H]1CCN(CCCCO)C[C@H]1O)c1ccc(F)c2c1OCCCO2 [compound 143]
7.94 |  | COc1ccc(C(=O)NC[C@@H]2CCN(CCCS(C)(=O)=O)C[C@H]2O)c2c1OCCCO2 [compound 126]
85.1 |  | CNCCCCN1CC[C@@H](CNC(=O)c2cc(Cl)c(OC)c3c2OCCCO3)[C@H](OC)C1 [compound 61]
11.7 |  | COCCCN1CC[C@@H](CNC(=O)c2ccc(OC)c3c2OCCO3)[C@H](O)C1 [compound 115]
0.871 |  | CCN1CC[C@@H](CNC(=O)c2ccc(C)c3c2OCCCO3)[C@H](O)C1 [compound 111]
24.5 |  | COCCCN1CC[C@@H](CNC(=O)c2ccc(OC)c3c2OCCCO3)[C@H](OC)C1 [compound 124]
